Data on 28 molecules can be found in patent US5420128A, “Pyrimidine derivatives, method of manufacturing the same, and androgen inhibitor” (Otsuka Pharmaceutical Co., Ltd., priority 1990, dated 1995).

In general, IC50 refers to the midpoint of a concentration-inhibition curve.

One assay addresses T1, rat prostate androgen receptor (Rattus norvegicus, UniProt P15207).
T1 construct: the supernatant was obtained as cytoplasm fraction; from tissue; host or cells: cytosol (105000×g supernatant) of rat ventral prostate, 24 hours after castration
T1 sequence (P15207 1-902): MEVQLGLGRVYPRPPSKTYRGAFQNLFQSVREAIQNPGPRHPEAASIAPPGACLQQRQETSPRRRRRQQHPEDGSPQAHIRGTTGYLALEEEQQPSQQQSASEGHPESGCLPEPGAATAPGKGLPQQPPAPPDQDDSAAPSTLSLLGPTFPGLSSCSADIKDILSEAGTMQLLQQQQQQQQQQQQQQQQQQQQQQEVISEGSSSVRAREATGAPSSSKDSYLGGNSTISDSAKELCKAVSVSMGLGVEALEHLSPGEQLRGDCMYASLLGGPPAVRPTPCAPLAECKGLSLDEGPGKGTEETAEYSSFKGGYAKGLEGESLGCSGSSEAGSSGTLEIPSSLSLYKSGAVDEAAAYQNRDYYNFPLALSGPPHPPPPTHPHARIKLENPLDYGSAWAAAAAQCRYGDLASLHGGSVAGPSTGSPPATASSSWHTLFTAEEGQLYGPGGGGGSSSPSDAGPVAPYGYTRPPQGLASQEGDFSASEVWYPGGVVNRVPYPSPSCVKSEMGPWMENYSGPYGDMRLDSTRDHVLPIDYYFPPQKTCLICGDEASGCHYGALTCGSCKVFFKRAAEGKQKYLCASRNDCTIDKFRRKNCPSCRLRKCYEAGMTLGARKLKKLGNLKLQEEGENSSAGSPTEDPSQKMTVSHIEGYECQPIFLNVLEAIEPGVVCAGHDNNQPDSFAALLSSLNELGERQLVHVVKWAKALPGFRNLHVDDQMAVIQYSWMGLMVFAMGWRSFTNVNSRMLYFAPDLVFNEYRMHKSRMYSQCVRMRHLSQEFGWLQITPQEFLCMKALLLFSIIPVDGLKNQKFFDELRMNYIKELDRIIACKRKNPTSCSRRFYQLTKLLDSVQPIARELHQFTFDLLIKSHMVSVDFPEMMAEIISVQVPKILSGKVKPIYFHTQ
The assay is described as follows: inhibitory activity on binding of ^3 H-5α-DHT on rat prostate androgen receptor. The conditions noted are these: ^3 H-5α-DHT 1 nM, rat ventral prostate cytosol, about 20 hours at 0° C.; read-out: Inhibitory activity on 5α-DHT specific binding [IC50 (M)]. The method, then: The compounds obtained in Examples were evaluated in the following pharmacological studies A and B. The pharmacological study A was conducted in conformity with J.B.C. 256 (15) 7998-8005, 1981.
A. Measurement of inhibitory activity on binding of ^3 H-5α-[…] (^3 H-5α,-DHT) on rat prostate androgen receptor
(1) Preparation of cytosol from rat prostate
The rat was sacrificed 24 hours after castration, and the ventral lobe of prostate was removed, and was gently homogenized, on ice water bath, by using a Potter homogenizer in three-fold amount of 0.25M sucrose-TME buffer solution (50 mM tris-HCl (pH 7.4), 0.5 mM mercaptoethanol, and 0.1 mM EDTA-2 Na). The homogenate was filtrated through double gauze, and ultracentrifuged at 105000×g for 60 minutes, and the supernatant was used as androgen receptor.
(2) Measurement of ^3 H-5α-DHT specific binding on prostate cytoplasmic androgen receptor
To the cytosol obtained in (1), ^3 H-5α-DHT (47.8 Ci/mmol) was added, so that a final concentration is adjusted to 1 nM, and 0.25 M sucrose-TME buffer was added to adjust the final volume to 0.5 ml, and the reaction mixture was incubated for about 20 hours at 0° C. An ammonium sulfate solution dissolved in 0.25 M sucrose-TME buffer was mixed to be 35% saturation, and after standing for 90 minutes at 0° C., the mixture was centrifuged at 10000×g for 10 minutes at 4° C., and the precipitate was obtained.
This precipitate was suspended again in 0.8 ml of the above buffer solution, and furthermore in order to remove the free type ^3 H-5α-DHT, 0.2 ml of dextran-carbon powder suspension (4% activated carbon, 0.1% dextran T-70, and 0.1% gelatin dissolved in the above buffer solution) was added and mixed, and the mixture was let stand for 10 minutes at 0° C. At 4° C., in succession, the mixture was centrifuged at 3000×g for 10 minutes, and 0.5 ml of the supernatant was transferred into a vial, and 10 ml of aquasol-2 was added, and radioactivity was measured, and the total binding amount of ^3 H-5α-DHT on the prostate cytoplasma androgen receptor was determined. The nonspecific binding amount was similarly determined by adding a non-radioactive ligand (5α-DHT) to the reaction solution to a final concentration of 1 μM. The difference between the total binding amount and nonspecific binding amount was determined as the specific binding amount on the androgen receptor.
(3) Inhibitory activity of sample compounds on ^3 H-5α-DHT specific binding
The compounds obtained in Examples were incubated with ^3 H-5α-DHT at several concentrations same as in (2), and the specific binding amount of ^3 H-5α-DHT on the androgen receptor was determined. Comparing the obtained value with the value of (2), the IC50 value of the test compounds on ^3 H-5α-DHT specific binding was determined. The following compounds were used as the positive controls.
Consider `O=S(=O)(Nc1cccnc1)c1ccc(-c2cnn3c(O)ncnc23)cc1` [Example 97, 4-Hydroxy-8-[4-(3-pyridylaminosulfonyl)phenyl]pyrazolo[1,5-a]-1,3,5-triazine], for which the IC50 came out at 5e-06 M. On the same count and under the same terms, next, `Cc1cc(-c2cnn3c(O)ncnc23)ccc1Sc1ccccc1` [Example 81, 4-Hydroxy-8-(3-methyl-4-phenylthiophenyl)pyrazolo[1,5-a]-1,3,5-triazine]: 1.5e-07 M.

For the molecule `Cc1cc(-c2cnn3c(O)ncnc23)ccc1Sc1ccc(Br)cc1` [Example 100, 8-[4-(4-bromophenylthio)-3-methylphenyl]-4-hydroxypyrazolo[1,5-a]-1,3,5-triazine], the IC50 is 4e-07 M.

Consider `Cc1cc(-c2cnn3c(O)ncnc23)ccc1SCc1ccccc1` [Example 79, 8-(4-Benzylthio-3-methylphenyl)-4-hydroxypyrazolo[1,5-a]-1,3,5-triazine], for which the IC50 worked out at 1.1e-07 M. Still for that read-out and setting: next, `Cc1cc(-c2cnn3c(O)ncnc23)ccc1S(=O)(=O)Nc1ccccc1` [Example 103, 4-Hydroxy-8-(3-methyl-4-phenylaminosulfonylphenyl)pyrazolo[1,5-a]-1,3,5-triazine]: 2.5e-07 M.

The target of the next assay is T1, rat prostate androgen receptor. The assay is described as follows: inhibitory activity on binding of ^3 H-mibolerone on rat prostate androgen receptor. Conditions: ^3 H-mibolerone 1 nM, triamcinolone acetonide 5 μM, rat ventral prostate cytosol, 20 hours at 0° C.; read-out: Inhibitory activity on mibolerone specific binding [IC50 (M)].
Method: B. Measurement of inhibitory activity on binding of ^3 H-mibolerone on rat prostate androgen receptor
The rat was sacrificed 24 hours after castration, and the ventral lobe of prostate was removed, and was gently homogenized, in ice-cooling water bath, at first by using Polytron and then using Potter type homogenizer, in three-fold amount of buffer solution A (1.5 mM EDTA, 2 mM dithiothreitol, 10 mM molybdate sodium, 10 % by volume of glycerol, 10 mM NaF, 25 mM phosphate sodium, pH 7.2). The obtained homogenate was filtrated through double gauze, and centrifuged at 105000×g for 60 minutes at 4° C., and the supernatant was obtained as cytoplasm fraction.
(2) Measurement of specific binding of ^3 H-mibolerone on prostate cytoplasm androgen receptor
To the cytoplasm fraction obtained in (1), ^3 H-mibolerone (87.0 Ci/mmol) was added, so that a final concentration is adjusted to 1 nM, and at the same time, in order to inhibit binding of ^3 H-mibolerone to progestin receptor, triamsinolone acetonide was added to a final concentration of 5 μM, and the final volume was adjusted to 0.4 ml with buffer solution A, and the reaction mixture was incubated for 20 hours at 0° C. After incubation, 0.5 ml of 60% hydroxylapatite slurry (washed and equilibrate with a buffer solution B: 10 mM NaH2 P04, 20 mM tris-hydrochloric acid, pH 7.2) was added, and incubated for 10 minutes at 0° C., the solution was transferred onto a glass fiber filter, and washed five times with 5 ml portions of buffer solution B containing 0.1% (weight/volume) of Triton X-100, to remove free ^3 H-mibolerone. This glass fiber was transferred into vial, and 10 ml of aquasol-2 was added, and the radioactivity was measured, and the total binding amount of ^3 H-mibolerone on prostate cytoplasm androgen receptor was determined.
The nonspecific binding amount was determined similarly by adding an unlabeled 5α-DHT in the reaction solution to a final concentration of 1 μM. The difference between the total binding amount and nonspecific binding amount was determined as the specific binding amount on the androgen receptor.
(3) Inhibitory activity of sample compounds on ^3 H-mibolerone specific binding
The compounds obtained in the experiments were added simultaneously with ^3 H-mibolerone at different concentrations to incubate same as in (2), and the specific binding amount of 3H-mibolerone on androgen receptor was determined. Comparing this value with the value obtained in (2), the IC50 value of inhibitory activity of the compounds on ^3 H-mibolerone specific binding was determined.
For `CC(=O)c1cnc2c(-c3ccc(Sc4ccccc4)cc3)cnn2c1O` [Example 67, 7-Hydroxy-6-acetyl-3-(4-phenylthiophenyl)pyrazolo[1,5-a]pyrimidine], the IC50 was found to be 3.4e-08 M.

As for `O=C(O)CCc1cnc2c(-c3ccc(Sc4ccccc4)cc3)cnn2c1O` [Example 39, 7-Hydroxy-6-carboxyethyl-3-(4-phenylthiophenyl)pyrazolo[1,5-a]pyrimidine], the IC50 came to 1.3e-07 M.

As to `OCCc1cnc2c(-c3ccc(Sc4ccccc4)cc3)cnn2c1O` [Example 60, 7-Hydroxy-6-(2-hydroxyethyl)-3-(4-phenylthiophenyl)pyrazolo[1,5-a]pyrimidine], the IC50 amounted to 3.9e-08 M.

`Oc1c(-c2ccccc2F)cnc2c(-c3ccc(Sc4ccccc4)cc3)cnn12` [Example 57, 7-Hydroxy-6-(2-fluorophenyl)-3-(4-phenylthiophenyl)pyrazolo[1,5-a]pyrimidine]: the IC50 was determined as 1.45e-07 M.

`Cc1ccc(-c2cnc3c(-c4ccc(Sc5ccccc5)cc4)cnn3c2O)cc1` [Example 51, 7-Hydroxy-6-(4-methylphenyl)-3-(4-phenylthiophenyl)pyrazolo[1,5-a]pyrimidin]: the IC50 is 3.4e-07 M.

As for `CC(C)c1cc(O)n2ncc(-c3ccc(Sc4ccccc4)cc3)c2n1` [Example 7, 7-Hydroxy-5-isopropyl-3-(4-phenylthiophenyl)pyrazolo[1,5-a]pyrimidine], the IC50 stood at 1.3e-05 M. `CC(C)(C)NC(=O)c1cnc2c(-c3ccc(Sc4ccccc4)cc3)cnn2c1O` [Example 46, 7-Hydroxy-3-(4-phenylthiophenyl)-6-(N-t-butyl)carbamoylpyrazolo[1,5-a]pyrimidine]: the IC50 stood at 1.7e-07 M. The same measure, in the same setting: next, `COc1ccccc1Cc1cnc2c(-c3ccc(Sc4ccccc4)cc3)cnn2c1O` [Example 30, 7-Hydroxy-6-(2-methoxyphenylmethyl)-3-(4-phenylthiophenyl)pyrazolo[1,5-a]pyrimidine]: 3.2e-07 M; `O=C(O)Cc1cnc2c(-c3ccc(Sc4ccccc4)cc3)cnn2c1O` [Example 40, 7-Hydroxy-6-carboxymethyl-3-(4-phenylthiophenyl)pyrazolo[1,5-a]pyrimidine]: 2.2e-08 M. Still for that read-out and setting: the value for `CCOC(=O)c1cnc2c(-c3ccc(Sc4ccccc4)c(OC)c3)cnn2c1O` [Example 14, 7-Hydroxy-6-ethoxycarbonyl-3-(3-methoxy-4-phenylthiophenyl)pyrazolo[1,5-a]pyrimidine] was 2e-07 M; that for `COc1ccccc1-c1cnc2c(-c3ccc(Sc4ccccc4)cc3)cnn2c1O` [Example 53, 7-Hydroxy-6-(2-methoxyphenyl)-3-(4-phenylthiophenyl)pyrazolo[1,5-a]pyrimidine] was 3e-07 M. On the same count and under the same terms, next, `Oc1cc(CCl)nc2c(-c3ccc(Sc4ccccc4)cc3)cnn12` [Example 9, 7-Hydroxy-5-chloromethyl-3-(4-phenylthiophenyl)pyrazolo[1,5-a]pyrimidine]: 3.1e-05 M; `Oc1c(C(O)c2ccccc2)cnc2c(-c3ccc(Sc4ccccc4)cc3)cnn12` (stereo not drawn) [Example 71, 7-Hydroxy-6-(α-hydroxybenzyl)-3-(4-phenylthiophenyl)pyrazolo[1,5-a]pyrimidine]: 4.6e-07 M; `CC(O)c1cnc2c(-c3ccc(Sc4ccccc4)cc3)cnn2c1O` (stereo not shown) [Example 70, 7-Hydroxy-6-(1-hydroxyethyl)-3-(4-phenylthiophenyl)pyrazolo[1,5-a]pyrimidine]: 1.55e-07 M. On to `COc1cnc2c(-c3ccc(Sc4ccccc4)cc3)cnn2c1O` [Example 21, 7-Hydroxy-6-methoxy-3-(4-phenylthiophenyl)pyrazolo[1,5-a]pyrimidine], for which the IC50 was determined as 1.65e-07 M. Regarding `O=C(Nc1ccccc1)c1cnc2c(-c3ccc(Sc4ccccc4)cc3)cnn2c1O` [Example 42, 7-Hydroxy-6-(N-phenylcarbamoyl)-3-(4-phenylthiophenyl)pyrazolo[1,5-a]pyrimidine], the IC50 was 3e-06 M.

Turning to `COc1ccc(-c2cnc3c(-c4ccc(Sc5ccccc5)cc4)cnn3c2O)cc1` [Example 52, 7-Hydroxy-6-(4-methoxyphenyl)-3-(4-phenylthiophenyl)pyrazolo[1,5-a]pyrimidine], the 50% inhibitory concentration (IC50) worked out at 2.3e-07 M.

Regarding `NC(=O)c1cnc2c(-c3ccc(Sc4ccccc4)cc3)cnn2c1O` [Example 43], the IC50 was 7.6e-08 M. The same measure, in the same setting: the value for `Oc1ccc(Cc2cnc3c(-c4ccc(Sc5ccccc5)cc4)cnn3c2O)cc1` [Example 63, 7-Hydroxy-6-(4-hydroxyphenylmethyl)-3-(4-phenylthiophenyl)pyrazolo[1,5-a]pyrimidine] was above 5e-06 M; that for `Oc1c(Cc2ccccc2)cnc2c(-c3ccc(Sc4ccccc4)cc3)cnn12` [Example 29, 7-Hydroxy-6-benzyl-3-(4-phenylthiophenyl)prazolo[1,5-a]pyrimidine] was 2.5e-08 M.

Regarding `Cc1cc(-c2cnn3c(O)ccnc23)ccc1Sc1ccccc1` [Example 76, 7-Hydroxy-3-(3-methyl-4-phenylthiophenyl)pyrazolo[1,5-a]pyrimidine], the IC50 turned out to be 2.3e-08 M. Take `Oc1cc(C(F)(F)F)nc2c(-c3ccc(Sc4ccccc4)cc3)cnn12` [Example 13, 7-Hydroxy-5-trifluoromethyl-3-(4-phenylthiophenyl)pyrazolo[1,5-a]pyrimidine]: the IC50 was 2e-06 M. As for `Oc1c(Cl)cnc2c(-c3ccc(Sc4ccccc4)cc3)cnn12` [Example 36, 7-Hydroxy-6-chloro-3-(4-phenylthiophenyl)pyrazolo[1,5-a]pyrimidine], the IC50 turned out to be 1.3e-07 M.
